The values that follow come from PMC8582298 (ChemMedChem, 2020).

In test [1] the target is T1, PP1 (Oryctolagus cuniculus, UniProt P62139). The note with it: literature values; cited from earlier work.
The target of test [2] is PP2A (Homo sapiens, UniProt P67775). The test can be described thus: Malachite green assay, IC50 determination, PP2A. The format is biochemical.
In test [3] the target is T1, PP1. The test can be described thus: Malachite green assay, IC50 determination, PP1. The format is biochemical. The following applies: for PP1 versus PP2A preference (in words): based on IC50 values; for IC50 PP1: malachite green assay, phosphopeptide K-R-pT-I-R-R 40 μM, 30 °C, three trials.

The structures appear in SMILES notation.

T1 sequence (P62139 whole entry): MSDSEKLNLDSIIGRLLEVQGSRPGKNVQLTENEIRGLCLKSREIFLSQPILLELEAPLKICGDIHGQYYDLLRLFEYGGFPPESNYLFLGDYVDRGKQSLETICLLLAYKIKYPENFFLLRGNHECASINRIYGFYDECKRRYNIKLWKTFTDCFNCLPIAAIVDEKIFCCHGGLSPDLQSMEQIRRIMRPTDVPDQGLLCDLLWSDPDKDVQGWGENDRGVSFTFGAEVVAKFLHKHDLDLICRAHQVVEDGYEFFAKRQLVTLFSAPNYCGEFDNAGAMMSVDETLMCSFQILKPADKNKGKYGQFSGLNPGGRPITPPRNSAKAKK
Sequence of PP2A (P67775 whole entry): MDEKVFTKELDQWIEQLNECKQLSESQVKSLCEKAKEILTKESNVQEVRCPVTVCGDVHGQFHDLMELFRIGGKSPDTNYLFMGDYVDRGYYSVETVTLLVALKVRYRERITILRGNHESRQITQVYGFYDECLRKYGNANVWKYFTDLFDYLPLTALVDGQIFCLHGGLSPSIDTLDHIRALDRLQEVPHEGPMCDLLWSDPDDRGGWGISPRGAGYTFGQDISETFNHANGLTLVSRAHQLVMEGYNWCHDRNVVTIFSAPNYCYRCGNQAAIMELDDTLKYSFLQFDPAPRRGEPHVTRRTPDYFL

By IC50 is commonly meant the concentration that gives 50% inhibition. A low value points to greater potency in that assay. On to `C=C/C(=C/C(=O)C[C@H](C)C[C@@H](C)CC[C@H](O)[C@H](C)C(=O)C[C@@H](O)[C@H](C)[C@@H](C)OC(=O)C[C@@H](O)C1=C(C)C(=O)OC1=O)CC` [TTN, tautomycetin, reference compound], for which the “Selectivity for PP1 over PP2A” value in test [1] was around 140 fold. Moreover, the IC50 in test [2] was 490 nM; in test [3], 11 ± 1 nM.
As to `CC1=C([C@H](O)CC(=O)O[C@H](C)[C@@H](C)[C@H](O)CC(=O)[C@@H](C)[C@@H](O)CCCCCOC(=O)c2ccccc2)C(=O)OC1=O` [1d, (6S,7S,10R,11S,12R)-6,10-dihydroxy-12-(((R)-3-hydroxy-3-(4-methyl-2,5-dioxo-2,5-dihydrofuran-3-yl)propanoyl)oxy)-7,11-dimethyl-8-oxotridecyl benzoate], the half-maximal inhibitory concentration (IC50) in test [2] was 260 nM. Moreover, in test [3], the IC50 worked out at 34 ± 2 nM, the “PP1 versus PP2A preference (in words)” value is reported as “PP1 selective” and the “IC50 PP1” value is given as “nanomolar range”.
Regarding `CO[C@H]([C@H](O)CC(=O)[C@@H](C)[C@@H](O)CC[C@@H](C)[C@@H]1O[C@]2(CC[C@@H](C)[C@H](CC[C@H](C)C(C)=O)O2)CC[C@@H]1C)[C@H](OC(=O)C[C@@H](O)C1=C(C)C(=O)OC1=O)C(C)C` [TTM, tautomycin], in test [1], the “Selectivity for PP1 over PP2A” value is “approximately 5 fold”.
`CC1=C([C@H](O)CC(=O)O[C@H](C)[C@@H](C)[C@H](O)CC(=O)[C@@H](C)[C@@H](O)CCCCCOC(=O)c2ccc(-c3ccccc3)cc2)C(=O)OC1=O` [1e, (6S,7S,10R,11S,12R)-6,10-dihydroxy-12-(((R)-3-hydroxy-3-(4-methyl-2,5-dioxo-2,5-dihydrofuran-3-yl)propanoyl)oxy)-7,11-dimethyl-8-oxotridecyl [1,1’-biphenyl]-4-carboxylate]: in test [2], the IC50 is 6800 nM. In test [3], the IC50 was 1500 ± 150 nM, the “PP1 versus PP2A preference (in words)” value is on record as “PP1 selective” and the “IC50 PP1” value was “nanomolar range”.
